Common to all, as to assay type: cell-based
For experiment [1], the system named is CEM-CCRF cells. The experiment is described as follows: 96 wells transwell migration assay in CEM human lymphoblast cells. From the text: Thus, to confirm CXCR4 functional activity, we evaluated UCUF-728 in a 96 wells transwell migration assay in CEM human lymphoblast cells. […] (Supplemental Figure S7). From the analog structure–activity relationship studies and characterization studies in the chemotaxis assay, cAMP signaling and CXCR4 binding assay, we identified UCUF-728 as a potent and functionally selective CXCR4 receptor modulator.
CEM-CCRF (ATCC CCL-119) were suspended in RPMI 1640 (Corning; 10-040-CV) at 5.0 × 10^5 cells/mL and allowed to incubate in cell culture incubator at 37 °C with 5% CO2 for one hour. […] Following 1 h cell incubation and compound dispensing, 150 μL of RPMI 1640 supplemented with 2% Fetal Bovine Serum was added to each well of the compound receiver tray, and 50 μL of 5 × 10^5 cells/mL cell suspension in RPMI were added to each well of the top filter plate. Plates were reassembled and placed in a cell culture incubator at 37 °C with 5% CO2 for three hours. After incubation, Multi-Screen plate was disassembled and 100 μL of solution was collected from compound receiver tray and transferred to 96 well luminescent plate and an equal volume of ATPLite 1step luminescence reagent (Perkin Elmer, Waltham, MA, USA) was added to each well. Luminescence was measured using the CLARIOstar Plus (BMG LABTECH Inc., Cary, NC, USA).

The subject of experiment [2] is miR-29a. The experiment is described as follows: miR-29a expression in human diabetic fibroblasts (real time qPCR). As to conditions: 24 h. On the procedure: An additional secondary screen was performed to further validate the activity of UCUF-728 as a selective CXCR4 receptor modulator. Human diabetic and non-diabetic fibroblasts were cultured with increasing concentrations of the compound. The cells were incubated for 24 h and then total cellular RNA was isolated to examine the ability of the compound to correct the abnormal expression of miR-15b, and miR-29a. We have shown that human diabetic skin has an increased miR-15b expression at the baseline compared to non-diabetic skin [7].
CEM-CCRF cells (ATCC CCL-119) were cultured in growth media consisting of RPMI 1640 (Corning; Corning NY, USA) supplemented with 10% Fetal Bovine Serum (Corning; Corning, NY, USA), and 100 IU penicillin, […] streptomycin sulfate (Corning; Corning, NY, USA). Cells were maintained in suspension and subcultured twice weekly to maintain cell densities between 0.8 × 10^6 cells/mL and 2.5 × 10^6 cells/mL to maintain exponential growth phase. […]
Total RNA was extracted with TRIzol reagent (Invitrogen, Carlsbad, CA, USA) according to the manufacturer’s established protocol. […] Quantitative PCR was performed on a BIO-RAD CFX96 according to the manufacturer’s instructions. Quantitative values of genes of interest are normalized based on U6. […]

For experiment [3], the target named is CXCR4 receptor (Homo sapiens, UniProt P61073). The experiment is described as follows: 384 w β-arrestin recruitment assay (Tango CXCR4-bla U2OS cells, PeproTech SDF-1α). Details: host or cells: Tango CXCR4-bla U2OS cells. The protocol: Tango™ CXCR4-bla U2OS Cells were resuspended in assay media consisting of DMEM (Corning; Corning, NY, USA) supplemented with 1% dialyzed Fetal bovine serum, 0.1 mM MEM Non-essential amino acids solution, 25 mM HEPES solution (Corning; Corning, NY, USA), 1 mM Sodium Pyruvate and 100 IU penicillin, […] streptomycin sulfate (Corning; Corning, NY, USA) at a density of 3.0 × 10^5 cells/mL. Cells suspension was dispensed at 30 μL per well into assay plate and incubated overnight in a cell culture incubator at 37 °C with 5% CO2. Following overnight incubation, LiveBlazer FRET B/G Loading Kit working reagent was prepared according to supplier guidelines and 6 μL of solution was dispensed into each well. Assay plate was covered and incubated in a dark place for two hours and Fluorescence Intensity was measured using the BMG LABTECH CLARIOstar Plus (BMG LABTECH Inc., Cary, NC, USA) according to the LiveBlazer FRET B/G Loading Kit excitation and emission measurement guidelines.
Chain of CXCR4 receptor (P61073 whole entry): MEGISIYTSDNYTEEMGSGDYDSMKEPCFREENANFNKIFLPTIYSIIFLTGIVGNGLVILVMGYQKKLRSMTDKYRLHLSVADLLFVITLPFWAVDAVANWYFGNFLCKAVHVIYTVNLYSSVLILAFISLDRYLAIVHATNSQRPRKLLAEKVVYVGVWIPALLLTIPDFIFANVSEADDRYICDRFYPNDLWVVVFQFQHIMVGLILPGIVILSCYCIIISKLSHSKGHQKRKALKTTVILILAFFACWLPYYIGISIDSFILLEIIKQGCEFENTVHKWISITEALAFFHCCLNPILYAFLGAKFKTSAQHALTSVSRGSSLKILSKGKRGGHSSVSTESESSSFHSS
On the technique in general: Recruitment of arrestin is a read-out of receptor activation apart from second messengers.

As for `COc1ccc(OC)c(NS(=O)(=O)c2ccc(-c3cnc(C4CC4)o3)cc2)c1` [Compound 19], the “induction of cell migration” value in experiment [1] (compound in lower channel, 3 h) is “induced migration with a similar EC50 and Emax as the B-arrestin recruitment activity”. In addition, in experiment [1] (saturating concentrations of UCUF-728), the “effect on SDF-1α-mediated migration response” value was “potentiated”. The miR-29a expression result in experiment [2] was “significant decrease in the miR-29a expression level”. In experiment [3], the EC50 (as a rule, the concentration needed to bring the measured effect to its halfway point) was 0.5 µM. The Emax (commonly the size of the effect at its maximum, as opposed to the concentration needed) in experiment [3] (U2OS) stood at 30%.

These data come from paper PMC8879702, “Discovery of Small Molecule Activators of Chemokine Receptor CXCR4 That Improve Diabetic Wound Healing” (International Journal of Molecular Sciences, 2022).
